The target in one experiment is T1, MMP-2 (gelatinase A) (Homo sapiens, UniProt P08253).
T1 construct: made in house; host or cells: COS-1 cells transfected with human pro-MMP-2 cDNA (secreted into culture medium)
T1 sequence (P08253 110-660): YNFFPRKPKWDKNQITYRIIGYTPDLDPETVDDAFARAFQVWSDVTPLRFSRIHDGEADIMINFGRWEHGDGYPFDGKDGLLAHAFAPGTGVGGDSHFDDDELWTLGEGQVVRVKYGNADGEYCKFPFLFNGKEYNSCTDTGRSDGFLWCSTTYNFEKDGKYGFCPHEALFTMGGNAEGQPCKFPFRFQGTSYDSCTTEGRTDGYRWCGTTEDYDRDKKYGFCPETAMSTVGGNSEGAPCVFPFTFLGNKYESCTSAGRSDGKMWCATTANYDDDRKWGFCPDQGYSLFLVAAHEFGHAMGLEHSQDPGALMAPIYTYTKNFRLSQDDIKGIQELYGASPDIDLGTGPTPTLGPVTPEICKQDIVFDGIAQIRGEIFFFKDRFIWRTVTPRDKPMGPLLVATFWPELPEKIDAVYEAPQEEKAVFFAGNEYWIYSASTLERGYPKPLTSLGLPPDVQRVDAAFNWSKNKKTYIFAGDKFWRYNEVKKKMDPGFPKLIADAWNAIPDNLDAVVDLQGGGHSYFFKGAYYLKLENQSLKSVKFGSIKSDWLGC
As to the kind of experiment: MMP-2 (gelatinase A) inhibitory activity, FITC-labeled type IV collagen degradation. The format is biochemical. Particulars: 50% inhibition of collagen type IV degradation; activated pro MMP-2 from transfected COS-1 cells; 42° C., 4 h. The protocol: (§1) Experiment 2: MMP-2 (gelatinase A) and MMP-9 (gelatinase B) inhibitory activities.
(§2) Pro MMP-2 was obtained from culture medium separated from human pro-MMP-2 cDNA tranfected COS-1 cells. It was activated by 1 mM (p-aminophenyl)mercury acetic acid, and MMP-9, derived human fibrosarcome,was purchased from Yagai Co. Ltd. Inhibition of both enzyme activities were estimated by enzyme assay using type IV collagenase activity assay kit (Yagai Co. Ltd., Biswaz, C. et al., J. Cell.Biochem., 28, 39 (1984)). MMP-2 or MMP-9 (0.01 U/ml), test compound (several concentrations), and FITC-labeled type IV collagen (derived bovine placenta, 25 μg) were incubated in 100 μl of 0.05M Tris - HCl buffer (pH 7.5) containing 200 mM NaCl and 5 mM CaCl2 at 42° C. for 4 h. Inhibitory activity of compound was evaluated by same as that of MMP-1 assay. Unchanged type IV collagen was precipitated by centrifugation, and the degradation percent of substrate was calculated by comparison with a fluorescence intensity of heat denatured substrate as 100%. Inhibition of enzyme activity was expressed as an IC50 value which was the concentration of test compound necessary to produce 50% inhibition of collagen type IV degradation by enzyme.

The next experiment deals with T2, MMP-9 (gelatinase B) (Homo sapiens, UniProt P14780).
T2 construct: purchased Yagai Co. Ltd; host or cells: human fibrosarcoma
The experiment is described as follows: MMP-9 (gelatinase B) inhibitory activity, FITC-labeled type IV collagen degradation. In kind it is biochemical. Particulars: 50% inhibition of collagen type IV degradation; MMP-9 derived from human fibrosarcoma; 42° C., 4 h. How it is done:
as §1, §2

T2 sequence (P14780 94-707): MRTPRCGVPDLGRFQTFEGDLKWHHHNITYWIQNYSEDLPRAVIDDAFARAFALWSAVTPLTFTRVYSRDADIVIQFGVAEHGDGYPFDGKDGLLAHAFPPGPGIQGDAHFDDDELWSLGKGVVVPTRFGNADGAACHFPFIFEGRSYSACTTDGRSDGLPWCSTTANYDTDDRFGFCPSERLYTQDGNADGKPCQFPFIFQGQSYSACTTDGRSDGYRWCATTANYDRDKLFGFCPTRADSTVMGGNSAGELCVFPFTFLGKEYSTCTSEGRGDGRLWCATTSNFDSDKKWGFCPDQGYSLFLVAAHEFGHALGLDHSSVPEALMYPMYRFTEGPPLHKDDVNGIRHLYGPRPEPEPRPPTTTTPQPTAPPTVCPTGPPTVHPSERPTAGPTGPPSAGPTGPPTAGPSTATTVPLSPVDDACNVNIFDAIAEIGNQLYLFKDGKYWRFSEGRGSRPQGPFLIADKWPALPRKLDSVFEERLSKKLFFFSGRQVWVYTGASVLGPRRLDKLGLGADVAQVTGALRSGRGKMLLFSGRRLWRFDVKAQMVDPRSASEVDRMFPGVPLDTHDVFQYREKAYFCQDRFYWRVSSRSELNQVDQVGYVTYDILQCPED

Consider `CNC(=O)[C@H](Cc1ccccc1)NC(=O)[C@H](CCc1ccc2cccccc1-2)CC(=O)NO` [Compound 32, N-[(2R)-2-(2'-Hydroxyamino-2'-oxo-ethyl)-4-(azulene-1-yl)-butyloyl]-L-phenylanine N-Methylamide], for which the results for the IC50 at MMP-2 (gelatinase A) and against MMP-9 (gelatinase B) were 3200 nM and 400 nM, respectively.

Turning to `CNC(=O)[C@H](Cc1ccc(OC)cc1)NC(=O)[C@H](CCc1ccc2cccccc1-2)CC(=O)NO` [Compound 33, (2S)-2-[(2R)-2-(2'-Hydroxyamino-2'-oxo-ethyl)-4-(azulene-1-yl)butyloyl]amino-3-(4-methoxy)phenylpropanoylmethylamide], the concentration for half-maximal inhibition (IC50) against MMP-2 (gelatinase A) is 160 nM; on MMP-9 (gelatinase B) it was 18 nM.

Take `CNC(=O)[C@@H](NC(=O)[C@H](CCc1ccc2cccccc1-2)CC(=O)NO)C(C)(C)C` [Compound 34, N-[(2R)-2-(2'-Hydroxyamino-2'-oxo-ethyl)-4-(azulene-1-yl)-butyloyl]-L-tert-leucine N-Methylamide]: the IC50 at MMP-2 (gelatinase A) amounted to 760 nM; on MMP-9 (gelatinase B), 52 nM.

In the case of `CNC(=O)[C@H](Cc1ccccc1)NC(=O)[C@H](CCCc1ccc2cccccc1-2)CC(=O)NO` [Compound 35, N-[(2R)-2-(2'-Hydroxyamino-2'-oxo-ethyl)-5-(azulene-1-yl)-pentanoyl]-L-phenylalanine N-Methylamide], the 50% inhibitory concentration (IC50) at MMP-2 (gelatinase A) came to 1300 nM; at MMP-9 (gelatinase B), 2500 nM.

Take `CCOc1ccc(C[C@H](NC(=O)[C@H](CCc2ccc3cccccc2-3)CC(=O)NO)C(=O)NC)cc1` [Compound 36, (2S)-2-[(2R)-2-(2'-Hydroxyamino-2'-oxo-ethyl)-4-(azulene-1-yl)butyloyl]amino-3-(4-ethoxy)phenylpropanoylmethylamide]: the IC50 was 180 nM against MMP-2 (gelatinase A) and 24 nM on MMP-9 (gelatinase B).

Take `CNC(=O)[C@H](Cc1ccccc1)NC(=O)[C@H](CCCCc1ccc2cccccc1-2)CC(=O)NO` [Compound 37, N-[(2R)-2-(2'-Hydroxyamino-2'-oxo-ethyl)-6-(azulene-1-yl)-hexanoyl]-L-phenylalanine N-Methylamide]: the IC50 on MMP-2 (gelatinase A) was found to be 2700 nM; against MMP-9 (gelatinase B), 2900 nM.

For the compound `CNC(=O)[C@H](Cc1ccccc1)NC(=O)[C@H](CCOc1ccc(OC)cc1)CC(=O)NO` [Compound 38, N-[(2R)-2-(2'-Hydroxyamino-2'-oxo-ethyl)-4-[(4-methoxyphenyl)oxy]butyloyl]-L-phenylalanine N-Methylamide], the half-maximal inhibitory concentration (IC50) against MMP-2 (gelatinase A) stood at 13 nM; on MMP-9 (gelatinase B) it was 2.3 nM.

With `CCOc1ccc(OCC[C@H](CC(=O)NO)C(=O)N[C@@H](Cc2ccccc2)C(=O)NC)cc1` [Compound 39, N-[(2R)-2-(2'-Hydroxyamino-2'-oxo-ethyl)-4-[(4-ethoxy-phenyl)oxy]butyloyl]-L-phenylalanine N-Methylamide], the 50% inhibitory concentration (IC50) against MMP-2 (gelatinase A) turned out to be 8.8 nM; on MMP-9 (gelatinase B), 1.4 nM.

For the compound `CNC(=O)[C@H](Cc1ccccc1)NC(=O)[C@H](CCCOc1ccc(OC)cc1)CC(=O)NO` [Compound 40, N-[(2R)-2-(2'-Hydroxyamino-2'-oxo-ethyl)-5-[(4-methoxyphenyl)oxy]pentanoyl]-L-phenylalanine N-Methylamide], the figures for the IC50 on MMP-2 (gelatinase A) and against MMP-9 (gelatinase B) were 1 nM and 0.18 nM, respectively.

Take `COc1ccc(OCCC[C@H](CC(=O)NO)C(=O)N[C@@H](Cc2ccccc2)C(=O)NC(C)(C)C)cc1` [Compound 41, N-[(2R)-2-(2'-Hydroxyamino-2'-oxo-ethyl)-5-[(4-methoxyphenyl)oxy]pentanoyl]-L-phenylalanine N-tert-Butylamide]: the values for the IC50 against MMP-2 (gelatinase A) and at MMP-9 (gelatinase B) were 3.1 nM and 0.13 nM, respectively.

In the case of `COc1ccc(OCCC[C@H](CC(=O)NO)C(=O)N[C@@H](Cc2ccccc2)C(=O)NCCS(N)(=O)=O)cc1` [Compound 42, 2-[N-[(2R)-2-(2'-Hydroxyamino-2'-oxo-ethyl)-5-[(4-methoxyphenyl)oxy]pentanoyl]-L-phenylalanyl]amino-ethanesulfonamide], the IC50 against MMP-2 (gelatinase A) worked out at 0.36 nM; against MMP-9 (gelatinase B) it was 0.051 nM.

(Values after patent US5990158A, “Carboxylic acid derivatives, method of manufacturing the same and therapeutic agents containing these compounds” (Kotobuki Seiyaku Co., Ltd., priority 1996, dated 1999).)
